The target of one series is recombinant PKC-γ (Homo sapiens, UniProt P05129). As to the kind of experiment: Activation of protein kinase PKC-γ (enzyme test). The class given is biochemical. The conditions noted are these: control with 100 nM TPA set to 100%. Here is the method: PKCγ activators are potentially suitable for activating cc-secretase. These activators are found in enzyme tests in which the recombinantly produced PKC-γ is suboptimally active. The test media were:
In the table, the control with 100 nM phorbol-12-myristate-13-acetate (TPA; stimulator of PKC-γ) was set to 100%.

Series [1] in a line: Stability of hyperforin salts on storage at room temperature (content by HPLC). Format: physicochemical. As to conditions: for Change in the hyperforin content, difference after 1 week / Change in the hyperforin content, difference after 4 weeks / Change in the hyperforin content, difference after 12 weeks: room temperature, brown-glass bottles, without protective gas; for Change in the hyperforin content, difference after 1 week / Change in the hyperforin content, difference after 4 weeks / Change in the hyperforin content, difference after 12 weeks / Initial value, hyperforin content (% of the stoichiometric content): HPLC; for Initial value, hyperforin content (% of the stoichiometric content): hyperforin (examples 1 to 20) or hyperforin+adhyperforin (examples 21 to 31). The procedure:
General: Melting points were measured with Elektrothermal® or B-545 (Büchi) apparatus; IR spectra were recorded with an IFS 28 (Bruker) IR-spectrometer on KBr blanks, NMR spectra with an AC 200 or Avance 200 (Bruker) in D4-methanol (200 MHz for ^1H and 50 MHz for ^13C; δ-values in ppm). HPLC determinations were performed using a Dynamax PDA-1 from Rainin, Voburn, Mass., USA. HPLC conditions (isocratic): adsorbant: Eurospher 100-C18, 10 μm. Eluant: Acetonitrile/water/phosphoric acid=85/15/0.3 (vol./vol.). Detection: 273 nm. […] Assay: Content stated in area-% with reference to the reference standard. […] Operating conditions: under red light or in darkened apparatus under protective gas (nitrogen or argon). […] They are calculated as hydrates. Abbreviations: MTBE=Methyl tert.-butyl ether. “98H/I”=n-heptane/isopropanol 98/2 (vol/vol). Mp.=melting point. anh.=anhydrous. Th=theoretical. sv=very strong.
1 This salt is used as the reference standard.

In a further series the test system is α-secretase. Nature of the series: Activation of α-secretase in secα1-transfected cells (Seap release). As to conditions: 60 min incubation, mean of triplicates. The class given is cell-based, human. The source says:
As the APP cassette in both constructs begins with amino-acid 7 of the β-amyloid sequence, the recognition sequence for β-secretase in the sec-fusion proteins is absent. Cleavage by γ-secretase has not been described for human APLP-2, with the result that the specificity of the fusion proteins for α-secretase only is achieved by substitution of the trans-membrane domain of APLP-2 for APP. The expression plasmid secα1 was stably transfected into human neuronal cells SY5Y. Activation of α-secretase in these secα1-transfected cells is manifested in an increased release of Seap into the cell medium. The quantity of Seap is determined, and serves as a measure of the α-secretase activity.
Test conditions: 80 000 FL-2a cells/well. V=100 μl. Incubation time: 60 min.
Concentration of the substances: 10 μg/ml.
Mean values±s.d. of triplicates.
The activation of α-secretase by the phorbol ester TPA (100 ng/ml) was measured as the positive control.

As to `CC(C)=CCC[C@]1(C)[C@@H](CC=C(C)C)C[C@@]2(CC=C(C)C)C(=O)[C@]1(C(=O)C(C)C)C(=O)C(CC=C(C)C)=C2O.[Na]` [Example 1, Hyperforin Sodium Salt], the “Increase in the activity of PKC-γ” value came out at 9% at recombinant PKC-γ (substance dose 1 μg/ml), 30% on recombinant PKC-γ (substance dose 3 μg/ml) and 56% on recombinant PKC-γ (substance dose 10 μg/ml).

Consider `C1CCC(NC2CCCCC2)CC1.CC(C)=CCC[C@]1(C)C(CC=C(C)C)C[C@@]2(CC=C(C)C)C(=O)[C@]1(C(=O)C(C)C)C(=O)C(CC=C(C)C)=C2O` (some centres unmarked) [Example 2, N,N-Dicyclohexylamine Salt of Hyperforin], for which the “Initial value, hyperforin content (titr.)” value in series [1] (storage time 0, perchloric-acid titration) is on record as 100%.

Turning to `CC(C)=CCC[C@]1(C)C(CC=C(C)C)C[C@@]2(CC=C(C)C)C(=O)[C@]1(C(=O)C(C)C)C(=O)C(CC=C(C)C)=C2O.COc1cc(CN)cc(OC)c1OC` (some centres unmarked) [Example 3, 3,4,5-Trimethoxybenzylamine Salt of Hyperforin], in series [1], the “Change in the hyperforin content, difference after 1 week” value (from here on “Change … difference after 1 week”) is reported as “+1.1%”; the “Change in the hyperforin content, difference after 4 weeks” value (“Change … difference after 4 weeks” for short) is given as −1.1%; the “Change in the hyperforin content, difference after 12 weeks” value (“Change … difference after 12 weeks” below) is listed as −5.0%. For the same compound, the “Initial value, hyperforin content (% of the stoichiometric content)” value in series [1] (storage time 0) is on record as 87.2%.

Regarding `C1CCNC1.CC(C)=CCC[C@]1(C)C(CC=C(C)C)C[C@@]2(CC=C(C)C)C(=O)[C@]1(C(=O)C(C)C)C(=O)C(CC=C(C)C)=C2O` (some centres unmarked) [Example 5, Pyrrolidine Salt of Hyperforin], the “Increase in the activity of PKC-γ” value was 3% on recombinant PKC-γ (substance dose 1 μg/ml), 20% on recombinant PKC-γ (substance dose 3 μg/ml) and 48% at recombinant PKC-γ (substance dose 10 μg/ml). For the same compound, the “Change … difference after 1 week” value in series [1] is −0.5%. In addition, the “Change … difference after 12 weeks” value in series [1] is given as −3.2%. Besides, the “Initial value, hyperforin content (% of the stoichiometric content)” value in series [1] (storage time 0) worked out at 93.7%.

`CC(C)=CCCC1(C)C(CC=C(C)C)CC2(CC=C(C)C)C(=O)C1(C(=O)C(C)C)C(=O)C(CC=C(C)C)=C2O.NCCCNC1CCCCC1` (centres unmarked) [Example 15]: in series [1], the “Change … difference after 1 week” value is −2.0%; the “Change … difference after 4 weeks” value is listed as −2.0%; the “Change … difference after 12 weeks” value was −9.9%. Besides, the “Initial value, hyperforin content (% of the stoichiometric content)” value in series [1] (storage time 0) is given as 90.8%.

`CC(C)=CCC[C@]1(C)C(CC=C(C)C)C[C@@]2(CC=C(C)C)C(=O)[C@]1(C(=O)C(C)C)C(=O)C(CC=C(C)C)=C2O.Nc1ccncc1` (some centres unmarked) [Example 16]: in series [1], the “Change … difference after 1 week” value was “+1.4%” and the “Change … difference after 4 weeks” value is “+0.1%”. In series [1] (storage time 0), the “Initial value, hyperforin content (% of the stoichiometric content)” value turned out to be 94.6%.

`CC(C)=CCC[C@]1(C)[C@@H](CC=C(C)C)C[C@@]2(CC=C(C)C)C(=O)[C@]1(C(=O)C(C)C)C(=O)C(CC=C(C)C)=C2O` [Hyperforin, hyperforin, reference compound]: the “Activity of α-secretase (secreted alkaline phosphatase, Seap)” value in the series on α-secretase (10 μg/ml, 80 000 cells/well) turned out to be 441 RLU. The “Increase in the activity of PKC-γ” value on recombinant PKC-γ (substance dose 1 μg/ml) was determined as 6%; on recombinant PKC-γ (substance dose 3 μg/ml), 51%; at recombinant PKC-γ (substance dose 10 μg/ml), 45%.

With `CCCCCCCCCCCCCC(=O)O[C@@H]1[C@@H](C)[C@@]2(O)[C@@H](C=C(CO)C[C@]3(O)C(=O)C(C)=C[C@@H]23)[C@@H]2C(C)(C)[C@]12OC(C)=O` [TPA, phorbol-12-myristate-13-acetate], in the series on α-secretase (positive control, 100 ng/ml), the “Activity of α-secretase (secreted alkaline phosphatase, Seap)” value was 386 RLU.
